Reference: the supplement of paper PMC10307832

How the values were obtained:
Assay in all cases: relative viability (nuclei count vs DMSO), 5 days (fraction); higher = more cells survive
BGJ398 + Decitabine = compound: CCN1CCN(c2ccc(Nc3cc(N(C)C(=O)Nc4c(Cl)c(OC)cc(OC)c4Cl)ncn3)cc2)CC1 [BGJ398] + Nc1ncn([C@H]2C[C@H](O)[C@@H](CO)O2)c(=O)n1 [Decitabine] (partner 2 µM)
How it was run: (§1)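 Values are medians from duplicate plates. Each reflects relative viability, defined as the nuclei count of treated wells over that of vehicle wells. Lung cancer cell lines in 1536-well plates were pin-tool dosed one day after seeding with one drug alone or with a fixed anchor-drug dose plus five library-drug doses (not always all listed) in √10 steps, then fixed, stained and imaged at 4× after 5 days.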

[1] = compound: C1=CC2=NC=CN=C2C=C1/C=C/3\C(=O)NC(=O)S3 + Nc1nc2[nH]cc(CCc3ccc(C(=O)N[C@@H](CCC(=O)O)C(=O)O)cc3)c2c(=O)[nH]1 [Pemetrexed] (partner 0.2 µM)
How it was run: as §1

BGJ398 + OSI-027 = compound: CCN1CCN(c2ccc(Nc3cc(N(C)C(=O)Nc4c(Cl)c(OC)cc(OC)c4Cl)ncn3)cc2)CC1 [BGJ398] + COc1cccc2cc(-c3nc([C@H]4CC[C@H](C(=O)O)CC4)n4ncnc(N)c34)[nH]c12 [OSI-027] (partner 0.5 µM)
How it was run: as §1

BGJ398 + Olaparib = compound: CCN1CCN(c2ccc(Nc3cc(N(C)C(=O)Nc4c(Cl)c(OC)cc(OC)c4Cl)ncn3)cc2)CC1 [BGJ398] + O=C(c1cc(Cc2n[nH]c(=O)c3ccccc23)ccc1F)N1CCN(C(=O)C2CC2)CC1 [Olaparib] (partner 8 µM)
How it was run: as §1

Cell Line | relative viability (BGJ398 + Decitabine; first compound 0.01 µM) | relative viability (BGJ398 + Decitabine; first compound 0.03162 µM) | relative viability (BGJ398 + Decitabine; first compound 0.1 µM) | relative viability (BGJ398 + Decitabine; first compound 0.3162 µM) | relative viability (BGJ398 + Decitabine; first compound 1 µM) | relative viability ([1]; first compound 0.02 µM) | relative viability ([1]; first compound 0.06325 µM) | relative viability ([1]; first compound 0.2 µM) | relative viability ([1]; first compound 0.6325 µM) | relative viability ([1]; first compound 2 µM) | relative viability (BGJ398 + OSI-027; first compound 0.01 µM) | relative viability (BGJ398 + OSI-027; first compound 0.03162 µM) | relative viability (BGJ398 + OSI-027; first compound 0.1 µM) | relative viability (BGJ398 + OSI-027; first compound 0.3162 µM) | relative viability (BGJ398 + OSI-027; first compound 1 µM) | relative viability (BGJ398 + Olaparib; first compound 0.01 µM) | relative viability (BGJ398 + Olaparib; first compound 0.03162 µM) | relative viability (BGJ398 + Olaparib; first compound 0.1 µM) | relative viability (BGJ398 + Olaparib; first compound 0.3162 µM) | relative viability (BGJ398 + Olaparib; first compound 1 µM)
LXF-289 | 0.351 | 0.415 | 0.332 | 0.325 | 0.38 | 0.841 | 0.823 | 0.789 | 0.908 | 0.899 | 0.708 | 0.795 | 0.806 | 0.768 | 0.799 | 1.01 | 0.973 | 1.17 | 0.919 | 1.07
H3255 | 0.585 |  | 0.591 |  | 0.681 | 0.532 | 0.559 | 0.577 | 0.616 | 0.533 | 0.493 |  | 0.676 | 0.37 | 0.602 | 0.527 | 0.537 | 0.604 | 0.551 | 0.55
201T | 0.958 | 0.814 | 0.835 | 0.797 | 0.807 | 0.316 | 0.346 | 0.363 | 0.348 | 0.312 | 0.781 | 0.825 | 0.793 | 0.636 | 0.564 | 0.907 | 0.791 | 0.858 | 0.822 | 0.843
NCI-H2126 | 0.608 | 0.601 | 0.611 | 0.612 | 0.566 | 0.65 | 0.772 | 0.684 | 0.713 | 0.463 | 0.864 | 0.705 | 0.664 | 0.721 | 0.687 | 0.953 | 0.864 | 0.964 | 0.865 | 0.918
HOP-62 | 0.232 | 0.245 | 0.204 | 0.225 | 0.215 | 0.319 | 0.368 | 0.299 | 0.355 | 0.307 | 0.792 | 0.986 | 0.916 | 0.83 | 0.889 | 0.291 | 0.525 | 0.538 | 0.349 | 0.558
NCI-H520 | 0.538 | 0.436 | 0.397 | 0.242 | 0.295 | 0.684 | 0.726 | 0.71 | 0.783 | 0.711 | 0.198 | 0.243 | 0.183 | 0.147 | 0.176 | 0.265 | 0.355 | 0.314 | 0.202 | 0.238
NCI-H1755 | 0.675 | 0.738 | 0.721 | 0.686 | 0.634 | 0.394 | 0.404 | 0.465 | 0.428 | 0.444 | 0.598 | 0.852 | 0.749 | 0.779 | 0.698 | 0.813 | 0.906 | 0.904 | 0.855 | 0.912
NCI-H2023 | 0.197 | 0.226 | 0.23 | 0.218 | 0.211 | 0.251 | 0.269 | 0.24 | 0.214 | 0.182 | 0.364 | 0.462 | 0.46 | 0.41 | 0.395 | 0.486 | 0.465 | 0.513 | 0.463 | 0.503
NCI-H2009 | 0.358 | 0.371 | 0.399 | 0.425 | 0.361 | 1.05 | 1.1 | 1.01 | 1.01 | 1.18 | 0.553 | 0.73 | 0.653 | 0.633 | 0.685 | 0.614 | 0.759 | 0.697 | 0.718 | 0.682
